From patent publication US5747239A, “Synthetic peptides specific for the detection of antibodies to HCV, diagnosis of HCV infection and preventions thereof as vaccines” (United Biomedical, Inc., priority 1994, dated 1998)

Experiments:
Assay type in all cases: binding, human
[1] = system: antibodies to HCV; test: Peptide ELISA for relative immunoreactivity, 8 member HCV serum panel (Panel I); settings: NS-3 peptides (Tables 4B-4D), relative to pep3 (279A)
[2] = system: antibodies to HCV; test: NS-1 peptide ELISA, Panel II (asymptomatic individuals, mainland China and Taiwan); settings: for % IP: NS-1 peptides, Panel II (CH1-CH7), relative to pep1 (231C)
Procedure: Wells of 96-well plates were coated for 1 hour at 37° C. with each of the 16 peptides (designated as peptides 241A-C, 231A-E, 232A-D, 233C, 234A-C), synthesized according to sequences derived from the NS-1 region (Table 3A), at 5 ug/mL at 100 uL per well in 10 mM NaHCO3 buffer, pH 9.5. Each peptide's immunoreactivity was measured as previously described (see Example 1), using an 8 member serum panel (Panel I).
A panel of serum samples from individuals coming from regions in which hepatitis C is endemic, namely mainland China and Taiwan, were tested for evidence of reactivity to these NS-1 protein derived peptides. Twenty-four samples were chosen from individuals who had no recognizable symptoms of non-A, non-B hepatitis and for whom the peptide based HCV EIA, Format C, as described in Example 11, was nonreactive. Seven of the 24 samples (29%) were reactive against one or more peptides from the NS-1 region, indicative of the presence of long term protective antibodies responsive to this region. This 7 member panel (designated as Panel II, CH1-CH7) was used to further characterize these NS-1 peptides for their immunoreactivity.
The peptide with the greatest reactivity against the serum Panel II again was pep1 (designated 231c in Table 3A). Using this peptide as a standard, the relative immunoreactivity for each of the other 15 peptides from the NS-1 region are calculated in Table 3A.

[3] = system: antibodies to HCV; test: NS-1 peptide ELISA, early and late HCV infection panels
Procedure: In addition, all sixteen NS-1 peptides were tested on panels of samples representing HCV-antibody positive donors (n=9) in an early stage of infection, namely plasmapheresis donors with the first occurrence of an ALT level >100 i.u./L, and those asymptomatic individuals (n=14) disqualified from blood donation because of a reactive result for anti-HIV or HBc, for whom the anti-HCV result probably represents a past infection.
These select panels were chosen from hundreds of HCV positive sera for their ability to recognize NS-1 antigens. For both groups, peptide designated as 232A (pep2) had the greatest immunoreactivity. Using pep2 as a standard, the relative immunoreactivity of each peptide was calculated (Table 3C).

[4] = system: antibodies to HCV; test: Peptide ELISA for relative immunoreactivity, 8 member HCV serum panel (Panel I)
Procedure: As an example to illustrate how relative (%) immunoreactivity for HCV synthetic peptides is measured, wells of 96-well plates are coated for 1 hour at 37° C., with each of the following peptides: IIH, V, VIIIE and pep11 at 5 ug/mL at 100 uL per well in 10 mM NaHCO3 buffer, pH 9.5. The peptide coated wells were then incubated with 250 uL of 3% by weight of gelatin in PBS in 37° C. for 1 hour to block non-specificprotein binding sites, followed by three washes with PBS containing 0.05% by volume of TWEEN 20 and then dried. The test specimens containing a panel of eight well-characterized HCV antibody positive patient sera were diluted with PBS containing 20% by volume normal goat serum, 1% by weight gelatin and 0.05% by volume TWEEN 20 at dilutions of 1:20 volume to volume, respectively. 200 uL of the diluted specimens were added to each of the wells and allowed to react for 15 minutes at 37° C.
The wells were then washed six times with 0.05% by volume TWEEN 20 in PBS in order to remove unbound antibodies. Horseradish peroxidase conjugated goat anti-human IgG was used as a second antibody tracer to bind with the HCV antibody-peptide antigen complex formed in positive wells. 100 uL of peroxidase labeled goat anti-human IgG at a dilution of 1:1800 in 1% by volume normal goat serum, 0.05% by volume TWEEN 20 in PBS was added to each well and incubated at 37° C. for another 15 minutes.
The wells were washed six times with 0.05% by volume TWEEN 20 PBS to remove unbound antibody and reacted with 100 uL of the substrate mixture containing 0.04% by weight orthophenylenediamine (OPD) and 0.12% by volume hydrogen peroxide in sodium citrate buffer, pH 5.0.
This substrate mixture was used to detect the peroxidase label by forming a colored product. Reactions were stopped by the addition of 100 uL of 1.0M H2 SO4 and the A492 mm measured. Results of relative immunoreactivity for each of the peptides obtained from this study are shown in Table A using peptide II H as the reference.

[5] = Early HCV Infection panel, n = 9
[6] = Late HCV Infection panel, n = 14

Row | Molecule | % Relative Immunoreactivity [1] [%] | % IP [2] [%] | % Relative Immunoreactivity in comparison to Pep2 (232A) [3, 5] [%] | % Relative Immunoreactivity in comparison to Pep2 (232A) [3, 6] [%] | other results
1 | AYMSKAHGIDPNIRTGVRTITTGSPITYSTYGKFLADGGCSGGAYDIIICDECHSTDAT [262E] | 3.6 |  |  |  | 
2 | CPERLASCRPLTDFDQGWGPISYANGSGPDQRPYCWHYPPKPCGIVPAKSVCGPVYC [231E] |  | 87.6 | 70.9 | 83.4 | 
3 | CRPLTDFDQGWGPISYANGSGPDQRPYCWHYPPKPCGIVPAKSVC [241B] |  | 92.9 | 32.7 | 75.0 | 
4 | CRPLTDFDQGWGPISYANGSGPDQRPYCWHYPPKPCGIVPAKSVCGPVYC [231D] |  | 65.3 | 23.3 | 43.5 | 
5 | DRSGAPTYSWGENDTDVFVLNNTRPPLGNWFGCTWMNSTGFTKVCGAPPC [232D] |  | 25.9 | 50.0 | 46.7 | Absorbance ([4]; Panel I sample 4): 785 mA; result with the remaining 7 panel members ([4]; Panel I without sample 4): negative
6 | EAACNWTRGERCDLEDRDRSELS [234A] |  | 20.5 | 9.5 | 15.7 | A492 nm by EIA (mA) ([2]; Panel II sample CH-1): 118 mA; A492 nm by EIA (mA) ([2]; Panel II sample CH-2): 232 mA; A492 nm by EIA (mA) ([2]; Panel II sample CH-3): 64 mA; A492 nm by EIA (mA) ([2]; Panel II sample CH-4): 227 mA; A492 nm by EIA (mA) ([2]; Panel II sample CH-5): 206 mA; A492 nm by EIA (mA) ([2]; Panel II sample CH-6): 202 mA; A492 nm by EIA (mA) ([2]; Panel II sample CH-7): 151 mA
7 | EVALSTTGEIPFYGKAIPLEVIKGGRHLIFCHSKKKCDEL [261B] | 3.1 |  |  |  | 
8 | FLADGGCSGGAYDIIICDECHSTDATSILGIGTVLDQAETAG [279B] | 3 |  |  |  | 
9 | GCSGGAYDIIICDECHSTDATSILGIGTVLDQAETAG [279A] | 100.0 |  |  |  | 
10 | LHCPTDCFRKHPDATYSRCGSGPWITPRCLVDYPYRLWHWPC [233C] |  | 16.8 | 9.9 | 17.5 | A492 nm by EIA (mA) ([2]; Panel II sample CH-1): 123 mA; A492 nm by EIA (mA) ([2]; Panel II sample CH-2): 174 mA; A492 nm by EIA (mA) ([2]; Panel II sample CH-3): 72 mA; A492 nm by EIA (mA) ([2]; Panel II sample CH-4): 238 mA; A492 nm by EIA (mA) ([2]; Panel II sample CH-5): 114 mA; A492 nm by EIA (mA) ([2]; Panel II sample CH-6): 175 mA; A492 nm by EIA (mA) ([2]; Panel II sample CH-7): 89 mA
11 | PNIRTGVRTITTGSPITYSTYGKFLADGGCSGGAYDIIICDECHSTDAT [262D] | 9.3 |  |  |  | 
12 | QGWGPISYANGSGPDQRPYCWHYPPKPCGIVPAKSVC [241A] |  | 63.9 | 23.9 | 43.8 | 
13 | QGWGPISYANGSGPDQRPYCWHYPPKPCGIVPAKSVCGPVYC [231C] |  | 100.0 | 88.6 | 62.7 | A492 nm by EIA (mA) ([2]; Panel II sample CH-1): 2237 mA; A492 nm by EIA (mA) ([2]; Panel II sample CH-2): 2472 mA; A492 nm by EIA (mA) ([2]; Panel II sample CH-3): 171 mA; A492 nm by EIA (mA) ([2]; Panel II sample CH-4): 218 mA; A492 nm by EIA (mA) ([2]; Panel II sample CH-5): 311 mA; A492 nm by EIA (mA) ([2]; Panel II sample CH-6): 247 mA; A492 nm by EIA (mA) ([2]; Panel II sample CH-7): 206 mA; immunopotency index ([4]; Panel I, compared with peptide VIIIE): 13.9%
14 | RPYCWHYPPKPCGIVPAKSVCGPVYC [231A] |  | 83.2 | 46.8 | 48.4 | 
15 | RTITTGSPITYSTYGKFLADGGCSGGAYDIIICDECHS [275A] | 18.2 |  |  |  | 
16 | RTITTGSPITYSTYGKFLADGGCSGGAYDIIICDECHSTDATSILGIGTVLDQAETAG [279E] | 2.2 |  |  |  | 
17 | SWGENDTDVFVLNNTRPPLGNWFGCTWMNSTGFTKVCGAPPC [232C] |  | 27.9 | 21.7 | 22.0 | 
18 | TIFKIRMYVGGVEHRLEAACNWTRGERCDLEDRDRSELS [234C] |  | 8.8 | 12.1 | 44.5 | 
19 | TTGSPITYSTYGKFLADGGCSGGAYDIIICDECHSTDAT [262B] | 4.7 |  |  |  | 
20 | TVLDQAETAGARLVVLATATPPGSVTVPHPNIEEVAL [274A] | 2.0 |  |  |  | 
21 | VFVLNNTRPPLGNWFGCTWMNSTGFTKVCGAPPC [232B] |  | 82.9 | 91.4 | 83.5 | 
22 | VGGVEHRLEAACNWTRGERCDLEDRDRSELS [234B] |  | 17.9 | 13.2 | 20.9 | 
23 | YGKFLADGGCSGGAYDIIICDECHSTDAT [262A] | 6.9 |  |  |  | 
24 | TMRSPVFTDNSSPPVVPQSFQVAHLHAPTGSGKSTKVPAAYAAQGYKVLVLNPSVAATLGFGAYMSKAHGIDPNIRTGVRTITTGSPITYSTYGKFLADGGCSGGAYDIIICDECHS (peptide) TMRSPVFTDNSSPPVVPQSFQVAHLHAPTGSGKSTKVPAAYAAQGYKVLVLNPSVAATLGFGAYMSKAHGIDPNIRTGVRTITTGSPITYSTYGKFLADGGCSGGAYDIIICDECHS | 5.4 |  |  |  | 
25 | AHGIDPNIRTGVRTITTGSPITYSTYGKFLADGGCSGGAYDIIICDECHSTDATSILGIGTVLDQAETAGARLVVLATATPPGSVTVPHPNIEEVAL (peptide) AHGIDPNIRTGVRTITTGSPITYSTYGKFLADGGCSGGAYDIIICDECHSTDATSILGIGTVLDQAETAGARLVVLATATPPGSVTVPHPNIEEVAL | 3.9 |  |  |  | 
26 | HLHAPTGSGKSTKVPAAYAAQGYKVLVLNPSVAATLGFGAYMSKAHGIDPNIRTGVRTITTGSPITYSTYGKFLADGGCSGGAYDIIICDECHS (peptide) HLHAPTGSGKSTKVPAAYAAQGYKVLVLNPSVAATLGFGAYMSKAHGIDPNIRTGVRTITTGSPITYSTYGKFLADGGCSGGAYDIIICDECHS | 9.6 |  |  |  | 
27 | SVAATLGFGAYMSKAHGIDPNIRTGVRTITTGSPITYSTYGKFLADGGCSGGAYDIIICDECHSTDAT (peptide) SVAATLGFGAYMSKAHGIDPNIRTGVRTITTGSPITYSTYGKFLADGGCSGGAYDIIICDECHSTDAT | 4.7 |  |  |  | 
28 | GYKVLVLNPSVAATLGFGAYMSKAHGIDPNIRTGVRTITTGSPITYSTYGKFLADGGCSGGAYDIIICDECHSTDATSILGIGTVLDQAETAGARLVVLATATPPGSVTVPHPNIEEVAL (peptide) GYKVLVLNPSVAATLGFGAYMSKAHGIDPNIRTGVRTITTGSPITYSTYGKFLADGGCSGGAYDIIICDECHSTDATSILGIGTVLDQAETAGARLVVLATATPPGSVTVPHPNIEEVAL | 2.8 |  |  |  | 
29 | GYKVLVLNPSVAATLGFGAYMSKAHGIDPNIRTGVRTITTGSPITYSTYGKFLADGGCSGGAYDIIICDECHSTDAT (peptide) GYKVLVLNPSVAATLGFGAYMSKAHGIDPNIRTGVRTITTGSPITYSTYGKFLADGGCSGGAYDIIICDECHSTDAT | 5.1 |  |  |  | 
